{"source": "patent US9790169B2", "about": "“IDO inhibitors” (BRISTOL-MYERS SQUIBB COMPANY, priority 2015, dated 2017)"}
{"biological_target": "human IDO1 (Homo sapiens, UniProt P14902)", "sequence (P14902 whole entry)": "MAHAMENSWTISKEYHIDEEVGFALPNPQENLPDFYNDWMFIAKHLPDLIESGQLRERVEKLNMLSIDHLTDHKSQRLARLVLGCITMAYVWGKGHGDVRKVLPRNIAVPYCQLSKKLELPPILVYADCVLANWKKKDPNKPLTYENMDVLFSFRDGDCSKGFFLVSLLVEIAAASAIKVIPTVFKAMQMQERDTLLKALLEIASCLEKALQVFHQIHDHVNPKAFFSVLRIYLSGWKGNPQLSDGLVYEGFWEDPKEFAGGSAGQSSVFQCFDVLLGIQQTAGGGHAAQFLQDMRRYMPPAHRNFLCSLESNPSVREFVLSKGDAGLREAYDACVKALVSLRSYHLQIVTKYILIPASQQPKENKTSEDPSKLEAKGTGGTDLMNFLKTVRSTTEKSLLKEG", "test": "Assessment of human IDO-1 inhibitory activity in Hela cells (Interferon-gamma stimulated HeLa cells, Ehrlich reagent, absorbance 490 nm)", "type": "cell-based", "parameters": "endogenous in cells; host or cells: HeLa cells stimulated with interferon-gamma", "settings": "Hela Human IDO-1 cellular assay", "method_in_brief": "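HeLa cells pre-incubated with compound 1 h at 37 °C, then stimulated with human IFN-γ (10 ng/ml final) or murine IFN-γ (5 ng/ml final) for 18 h. Kynurenine read with Ehrlich reagent at 490 nm after TCA (3%) and 50 °C treatment; IC50 normalized to unstimulated (100%) and IFN-γ-only (0%) wells.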", "units": {"IC50": "nM"}}
{"compound": "COCCN(c1ccc(C(COC)CC(=O)O)cc1Nc1ccc(Cl)cc1)C1CCOCC1", "note": "(single isomer, unassigned) [Example 256 Enantiomer 1, 3-(3-((4-Chlorophenyl)amino)-4-((2-methoxyethyl)(tetrahydro-2H-pyran-4-yl)amino)phenyl)-4-methoxybutanoic acid]", "IC50": "< 5"}
{"compound": "CCN(c1ccc(C(CC(=O)O)C2CC2)cc1Nc1ccc(F)cc1)C1CCS(=O)(=O)CC1", "note": "(single isomer, unassigned) [Example 343, 3-cyclopropyl-3-(4-((1,1-dioxidotetrahydro-2H-thiopyran-4-yl)(ethyl)amino)-3-((4-fluorophenyl)amino)phenyl) propanoic acid]", "IC50": "< 5"}
{"compound": "Cc1ccc(NC(=O)Nc2cc(C(C)CC(=O)O)ccc2N2C[C@@H](C)O[C@@H](C)C2)cc1", "note": "(single isomer, unassigned) [Example 751]", "IC50": "> 50"}
{"compound": "CCC(CC(=O)O)c1ccc(N(CC)C2CCOC2)c(NC(=O)Nc2ccc(Cl)cc2F)c1", "note": "(single isomer, unassigned) [Example 946 D1, 3-(3-(3-(4-Chloro-2-fluorophenyl)ureido)-4-(ethyl(tetrahydrofuran-3-yl)amino)phenyl)pentanoic acid]", "IC50": "< 50"}
{"compound": "COCC(CC(=O)O)c1ccc(N2CCC(c3ccccc3)CC2)c(NC(=O)Nc2ccc(Cl)cc2F)c1", "note": "(single isomer, unassigned) [Example 1357 E1, 3-(3-(3-(4-Chloro-2-fluorophenyl)ureido)-4-(4-phenylpiperidin-1-yl)phenyl)-4-methoxybutanoic acid]", "IC50": "> 50"}
{"compound": "CCCN(c1ccc([C@H](CC)CC(=O)O)cc1Nc1ccc(C#N)cc1)C1CCOCC1", "note": "(single isomer, unassigned) [Example 547]", "IC50": "< 5"}
{"compound": "COCC(CC(=O)O)c1ccc(N(C)C2CCOCC2)c(Nc2ccc(C#N)cn2)c1", "note": "(single isomer, unassigned) [Example 881, 3-(3-((5-cyanopyridin-2-yl)amino)-4-(methyl (tetrahydro-2H-pyran-4-yl)amino)phenyl)-4-methoxybutanoic acid]", "IC50": "> 50"}
{"compound": "CCN(c1ccc([C@@H](CC(=O)O)C(F)(F)F)cc1NC(=O)Nc1ccc(Cl)cc1F)C1CCOCC1", "note": "(single isomer, unassigned) [Example 1270]", "IC50": "< 50"}
{"compound": "CCC1COCCN1c1ccc([C@H](COC)CC(=O)O)cc1Nc1ccc(C#N)c(F)c1", "note": "(single isomer, unassigned) [Example 1288]", "IC50": "> 50"}
{"compound": "(R)-3-(4-((1,1-dioxidotetrahydro-2H-thiopyran-4-yl)(ethyl)amino)- 3-((2-ethoxypyrimidin-5- yl)amino)phenyl)-4- isopropoxybutanoic acid [Example 333]", "IC50": "> 50"}
{"compound": "CCCN(c1ccc([C@H](COC)CC(=O)O)cc1NC(=O)Nc1ccc(C#N)cc1)C1CCOCC1", "note": "(single isomer, unassigned) [Example 577]", "IC50": "> 50"}
{"compound": "COCC(CC(=O)O)c1ccc(N2CCOC[C@@H]2C(C)C)c(NC(=O)Nc2ccc(C#N)cc2)c1", "note": "(single isomer, unassigned) [Example 932]", "IC50": "> 50"}
{"compound": "CCOc1ncc(Nc2cc(C(CC)CC(=O)O)cnc2N(CC)C2CCOCC2)cn1", "note": "(racemic) [Example 1378]", "IC50": "< 5"}
